From patent US10933051B2, “Carbapenem compounds and compositions for the treatment of bacterial infections” (FOB Synthesis, Inc., priority 2017, dated 2021)

Assays:
Assay type in all cases: cell-based
Parameters in all cases: unit not given here
A. baumannii FSAb-065 = assay: Antimicrobial Susceptibility Test (CLSI), Test Example 2; settings: Table 4; strain produces OXA-2, VIM-2
Description: (§1) Antimicrobial Susceptibility Test was performed by the CLSI (Clinical and Laboratory Standards Institute) methods. The agar dilution method for determining antimicrobial susceptibility was carried out using Mueller Hinton-II agar and the amount of inoculation was 10^4CFU/spot. Broth dilution tests were performed using the Mueller Hinton-II broth. All assays were run with the indicated control strains, available from the ATCC (American Type Culture Collection, Rockville, Md.).

A. baumannii FSAb-039 = assay: as above; settings: Table 4; strain produces OXA-51
Description: as §1

E. coli FSEco-054 = assay: as above; settings: Table 4; strain produces ESBL
Description: as §1

A. baumannii FSAb-056 = assay: as above; settings: Table 4; strain produces OXA-23, OXA-51
Description: as §1

A. baumannii FSAb-029 = assay: as above; settings: Table 4; strain produces OXA-2, IMP-1
Description: as §1

P. aeruginosa FSPa-121 = assay: as above; settings: Table 4; strain produces OXA-17
Description: as §1

[1] = tested on: K. pneumoniae ATCC BAA-1904; assay: as above; settings: Table 4; strain produces KPC-3
Description: as §1

A. baumannii KABA 01-33 = assay: MIC by CLSI agar/broth dilution, Test Example 1; settings: Table 2; strain produces OXA-2, VIM-2
Description: (§2) The MIC (minimum inhibitory concentration) was determined by the CLSI (Clinical and Laboratory Standards Institute) methods. The agar dilution method for determining antimicrobial susceptibility was carried out using Mueller Hinton-II agar and the amount of inoculation was 10^4 CFU/spot. Broth dilution tests were performed using Mueller Hinton-II broth. All assays were run with the indicated control strains, available from the ATCC (American Type Culture Collection, Rockville, Md.).

K. pneumoniae ATCC10031 = assay: MIC by CLSI agar/broth dilution, Test Example 1; settings: Table 2
Description: as §2

A. baumannii 4010 = assay: MIC by CLSI agar/broth dilution, Test Example 1; settings: Table 2; strain produces OXA-51
Description: as §2

P. aeruginosa ATCC27853 = assay: MIC by CLSI agar/broth dilution, Test Example 1; settings: Table 2
Description: as §2

E. coli ATCC10536 = assay: MIC by CLSI agar/broth dilution, Test Example 1; settings: Table 2
Description: as §2

| Compound | antimicrobial susceptibility, A. baumannii FSAb-065 (A. baumannii FSAb-065) | antimicrobial susceptibility, A. baumannii FSAb-039 (A. baumannii FSAb-039) | antimicrobial susceptibility, E. coil FSEco-054 (E. coli FSEco-054) | antimicrobial susceptibility, A. baumannii FSAb-056 (A. baumannii FSAb-056) | antimicrobial susceptibility, A. baumannii FSAb-029 (A. baumannii FSAb-029) | antimicrobial susceptibility, P. aeruginosa FSPa-121 (P. aeruginosa FSPa-121) | antimicrobial susceptibility, K. pneumoniae BAA-1904 [1] | MIC (minimum inhibitory concentration), A. baumannii KABA 01-33 (A. baumannii KABA 01-33) | MIC (minimum inhibitory concentration), K. pneumoniae ATCC10031 (K. pneumoniae ATCC10031) | MIC (minimum inhibitory concentration), A. baumannii 4010 (A. baumannii 4010) | MIC (minimum inhibitory concentration), P. aeruginosa ATCC27853 (P. aeruginosa ATCC27853) | MIC (minimum inhibitory concentration), E. coil ATCC10536 (E. coli ATCC10536) |
| --- | --- | --- | --- | --- | --- | --- | --- | --- | --- | --- | --- | --- |
| C[C@@H](O)[C@H]1C(=O)N2C(C(=O)O)=C(CN(C)CCNC(=O)c3cc(O)c(O)c(Cl)c3)[C@H](C)[C@H]12 [Compound 6] | 2 | 4 | 1 | 2 | 2 | 2 | 32 | 1 | 0.063 | 4 | 8 | 0.5 |
| C[C@@H](O)[C@H]1C(=O)N2C(C(=O)O)=C(CN(C)CC(=O)NCCNC(=O)c3ccc(O)c(O)c3Cl)[C@H](C)[C@H]12 [Compound 19] | 8 | 8 | 8 | 8 | 8 | 4 | 8 | 1 | 0.063 | 4 | 4 | 0.5 |
| C[C@@H](O)[C@H]1C(=O)N2C(C(=O)O)=C(CN(C)CC(=O)NCc3cc(=O)c(O)cn3O)[C@H](C)[C@H]12 [Compound 26] | 4 | 16 | 4 | 4 | 16 | 4 | 32 | 2 | 0.13 | 8 | 8 | 0.5 |
| C[C@@H](O)[C@H]1C(=O)N2C(C(=O)O)=C(CN(C)CCNC(=O)c3cc(O)c(O)cc3Cl)[C@H](C)[C@H]12 [Compound 5] | 8 | 8 | 4 | 8 | 8 | 8 | 32 | 2 | 0.13 | 8 | 16 | 1 |
| C[C@@H](O)[C@H]1C(=O)N2C(C(=O)O)=C(CN(C)CCNC(=O)c3ccc(O)c(O)c3Cl)[C@H](C)[C@H]12 [Compound 1] | 1 | 2 | 1 | 2 | 1 | 2 | 8 | 1 | 0.063 | 2 | 4 | 0.5 |
